# Where two headings read alike, the source gives them in different places. Where a SMILES comes first, the peptide text is derived from it. Side-chain parts run from the residue outwards. [ ]: non-standard residue; d: D form. The star is where a group is joined. Lys(α,ε-(ArgTrp)2) = N=C(N)NCCC[C@H](N)C(=O)N[C@@H](Cc1c[nH]c2ccccc12)C(=O)NCCCC[C@H](NC(=O)[C@H](Cc1c[nH]c2ccccc12)NC(=O)[C@@H](N)CCCNC(=N)N)C(=O)*; βAla = NCCC(=O)O
# Experiments:
# fresh sheep erythrocytes = experiment: hemolytic assay; type: cell-based
# Procedure: Hemolytic activity of model peptides was assessed on fresh sheep erythrocytes (Fitzgerald Inc., Concord, Mass.). […] The resulting supernatant was diluted by a factor of 40 in distilled water. The absorbances of the supernatant at λ=540 nm (OD540) were measured in the UV Spectrophotometer. […] Hemolytic index (HI) was defined as HI═HD50/IC50.
# [1] = test system: ampicillin- and streptomycin-resistant E. coli (D31)
# [2] = test system: multi-drug resistant strain S. aureus
# [3] = test system: ampicillin- and streptomycin-resistant E. coli (D31); experiment: microbe, parasite or virus in culture; settings: Escherichia coli, read-out: MIC50 E. coli
# [4] = test system: multi-drug resistant strain S. aureus; experiment: microbe, parasite or virus in culture; settings: Staphylococcus aureus, read-out: MIC50 S. aureus
# B. Subtilis (ATCC 6633) [5] = experiment: microbe, parasite or virus in culture; settings: Bacillus subtilis, ATCC6633, read-out: MIC50 B. subtilis
# [6] = test system: B. anthracis (32F2 Sterne); experiment: microbe, parasite or virus in culture; settings: Bacillus anthracis, read-out: MIC50 B. anthracis
# E. faecalis (29212) [7] = experiment: microbe, parasite or virus in culture; settings: Enterococcus faecalis, read-out: MIC50 E. faecalis
# [8] = type: cell-based, mouse
# Procedure: The cells were grown in 96 well plates and a 100 μl aliquot of a three fold serial dilution of the peptides was dispensed into each well. Buffer alone was used as the positive control and H2O2 was used as the negative control. MTS […] was added to each well prior to incubation to visualize the cells. The cells were incubated for 24 hours and their absorbance were measured at λ=495 nm.
# [9] = dye leakage assay (calcein); settings: POPG vesicles
# Source text: To confirm that the multivalent AMPs interact with and disrupt phospholipid bilayers, we measured the ability of dendrimer (RW)4D to induce leakage of calcein, entrapped within the interior of large unilamellar vesicles of model membrane POPG (1-Palmitoyl-2-Oleoyl-sn-Glycero-3-[Phospho-rac-(1-glycerol)]) with negatively charged head group. The leakage of vesicle contents to the AMPs was monitored by the release of calcein encapsulated in large unilamellar vesicles. The method of preparation of dye-encapsulated vesicles has been reported in detail (Torchilin and Weissig 2003). In short, large unilamellar POPG vesicles were prepared by reverse-phase evaporation. After evaporating the organic solvent, residue were hydrated with the calcein solution (100 mM) in buffer (10 mM Tris-HCl pH 7.4). The free calcein was removed by eluting through a Sephadex G-50 size-exclusion column in the same buffer. The leakage process was monitored by following the increase of calcein fluorescence intensity at 515 nm (excitation at 490 nm) after 20 μL of AMPs at different concentrations were added to 10 μL of vesicle solution mixed in 2 mL of TBS buffer. Complete leakage was achieved by addition of 100 uL of 20% Triton X-100 to the 2 ml solution, and the corresponding fluorescence intensity was used as 100% leakage for the calculation of leakage fraction.
# [10] = test system: multi-drug resistant MRSA gram-positive bacteria; experiment: killing of multi-drug resistant bacteria, one hour contact; type: cell-based
# [11] = test system: E. coli(D31) gram-negative bacteria; experiment: as above; type: cell-based
# [12] = antibacterial activity under physiological conditions (90% human serum); type: cell-based
# Procedure: In a further experiment, antibacterial activity under physiological conditions was tested. The MIC50 was determined in the presence of 90% human serum, respectively.
# Acineto Baumannii = experiment: killing and growth inhibition of Acineto Baumannii; type: cell-based
# gram-positive MRSA = experiment: LIVE/DEAD staining assay, membrane damage; type: cell-based; settings: 1 hr incubation; (RW)4D 10 uM
# [13] = test system: gram-negative A. baumannii; experiment: LIVE/DEAD staining assay, membrane damage; type: cell-based; settings: 1 hr incubation; (RW)4D 10 uM
# E. coli (RP437) biofilm = experiment: biofilm formation in 96 well plates, crystal violet; type: cell-based; settings: 24 hours
# Source text: The effect of dendrimers of the invention on E. coli biofilm formation was further examined and measured. The development of a bacterial biofilm allows for the bacteria to become more antibiotic resistant. […] Assay summary: E. coli (RP437) was used to form biofilms in 96 well plates with and without different concentrations of peptides.
# E. coli RP437 biofilm = experiment: two-day biofilm on stainless steel coupons, Live/Dead staining; type: cell-based; settings: 25 μg/mL, 48 hours
# Procedure: E. coli biofilm inhibition by (RW)4D was also studied on stainless steel coupons. Microscope images were taken after staining the two-day biofilms with Live/Dead staining solution. […] Assay summary: E. coli RP437 was used to form biofilms in a plastic dish with stainless steel coupons and different concentrations of peptides. After 48 hours incubation, coupon was soaked in NaCl buffer containing staining component in the dark for 15 mins.
# B. Subtilis (ATCC 6633) [14] = settings: ATCC 6633
# [15] = test system: B. anthracis (32F2 Sterne)
# E. faecalis (29212) [16] = settings: 29212
# [17] = test system: three other gram-positive bacteria
# trypsin = trypsin at high concentration, various time intervals up to 24 hrs
# [18] = test system: Multidrug-resistant gram-positive S. aureus; settings: over 250 generations
# [19] = test system: gram-negative E. coli (D31); settings: over 250 generations
# [20] = mean over no, low and high salt
smiles,measurement,setting,value
CC(C)(O/N=C(\C(=O)N[C@@H]1C(=O)N2C(C(=O)[O-])=C(C[n+]3ccccc3)CS[C@H]12)c1csc(N)n1)C(=O)O [Ceftazidime],HD50 (peptide concentration corresponding to 50% hemolysis),"fresh sheep erythrocytes; sheep, 30 min, pH 7.2",>2000 µg/mL
same,MIC50 E. coli,[1]; 75 mM NaCl,44 µg/mL
same,MIC50 E. coli,[1]; 150 mM NaCl,44 µg/mL
same,MIC50 S. aureus,[2]; 75 mM NaCl,63 µg/mL
same,MIC50 S. aureus,[2]; 150 mM NaCl,63 µg/mL
same,MIC50,[3],44 µg/mL
same,MIC50,[4],63 µg/mL
same,MIC50,B. Subtilis (ATCC 6633) [5],6.2 µg/mL
same,MIC50,[6],91 µg/mL
same,MIC50,E. faecalis (29212) [7],14 µg/mL
"N=C(N)NCCC[C@H](N)C(=O)N[C@@H](Cc1c[nH]c2ccccc12)C(=O)NCCCC[C@H](NC(=O)[C@H](Cc1c[nH]c2ccccc12)NC(=O)[C@@H](N)CCCNC(=N)N)C(=O)NCCCC[C@H](NC(=O)[C@H](CCCCNC(=O)[C@H](Cc1c[nH]c2ccccc12)NC(=O)[C@@H](N)CCCNC(=N)N)NC(=O)[C@H](Cc1c[nH]c2ccccc12)NC(=O)[C@@H](N)CCCNC(=N)N)C(=O)NCCC(N)=O [Den(RW)4D] (H-RWK([Trp-Arg])K(Lys(α,ε-(ArgTrp)2))[βAla]-NH2)",IC50,[8],~1380 µg/mL
same,concentration at which peptide caused 50% dye leakage,[9],0.5 µg/mL
same,decrease in bacteria remaining after contact,[10],3 log
same,decrease in bacteria remaining after contact,[11],3 log
same,antimicrobial activity in the presence of human serum,[12],human serum cannot completely block the antimicrobial activity
same,killing and growth inhibition,Acineto Baumannii,can kill the bacteria and inhibit its growth at very low concentration
same,membrane damage / killing by Live/Dead staining,gram-positive MRSA,show damaged membranes
same,membrane damage / killing by Live/Dead staining,[13],show damaged membranes
same,inhibition of biofilm formation,E. coli (RP437) biofilm,exhibited inhibition of E. coli biofilm formation
same,total biofilm formation on stainless steel coupons compared with blank control,E. coli RP437 biofilm,significantly reduced
same,increase in MIC50 value from no salt to high-salt condition,[1],50%
same,MIC50 E. coli,[1]; 0 mM NaCl,3.0 µg/mL
same,MIC50 E. coli,[1]; 75 mM NaCl,3.9 µg/mL
same,MIC50 E. coli,[1]; 150 mM NaCl,4.5 µg/mL
same,mean MIC50 against E. coli,[1]; [20],3.8 µg/mL
same,MIC50 S. aureus,[2]; 0 mM NaCl,10 µg/mL
same,MIC50 S. aureus,[2]; 75 mM NaCl,15 µg/mL
same,MIC50 S. aureus,[2]; 150 mM NaCl,16 µg/mL
same,mean MIC50 against S. aureus,[2]; [20],13.6 µg/mL
same,MIC50 B. subtilis,B. Subtilis (ATCC 6633) [14],3.5 µg/mL
same,MIC50 B. anthracis,[15],13 µg/mL
same,MIC50 E. faecalis,E. faecalis (29212) [16],5.5 µg/mL
same,mean MIC50 against all test organisms,[17]; three gram-positive bacteria,7.4 µg/mL
same,inactivation of antibacterial activity by trypsin,trypsin,resistant to inactivation by trypsin
same,development of resistance (MIC90),[18],did not show resistance
same,development of resistance (MIC90),[19],did not show resistance
"CC[C@H](C)[C@H](N)C(=O)N[C@@H](CC(C)C)C(=O)N1CCC[C@H]1C(=O)N[C@@H](Cc1c[nH]c2ccccc12)C(=O)N[C@@H](CCCCN)C(=O)N[C@@H](Cc1c[nH]c2ccccc12)C(=O)N1CCC[C@H]1C(=O)N[C@@H](Cc1c[nH]c2ccccc12)C(=O)N[C@@H](Cc1c[nH]c2ccccc12)C(=O)N1CCC[C@H]1C(=O)N[C@@H](Cc1c[nH]c2ccccc12)C(=O)N[C@@H](CCCNC(=N)N)C(=O)N[C@@H](CCCNC(=N)N)C(N)=O [Indolicidin, reference compound]",HD50 (peptide concentration corresponding to 50% hemolysis),"fresh sheep erythrocytes; sheep erythrocytes, 37° C., 30 minutes",293 µg/mL
same,increase in MIC50 value from no salt to high-salt condition,"[1]; E. coli and S. aureus, 0 to 150 mM NaCl",> 100%
same,MIC50 B. subtilis,B. Subtilis (ATCC 6633) [14],1.0 µg/mL
same,MIC50 B. anthracis,[15]; 32F2 Sterne,8.2 µg/mL
same,MIC50 E. faecalis,E. faecalis (29212) [16],1.6 µg/mL
same,mean MIC50 against all test organisms,[17],3.6 µg/mL
